According to US11597724B2, “Herbicidally active 3-phenylisoxazoline-5-carboxamides of tetrahydro and dihydrofuran carboxylic acids and esters” (Bayer Aktiengesellschaft, priority 2017, dated 2023):

Legend:
Type in all cases: in vivo
Polygonum convolvulus = experiment: Post-emergence herbicidal activity against POLCO; conditions: Fallopia convolvulus, 504 h, dosage 320 g/ha, rated about 3 weeks after treatment
Method: (§1) POLCO: Polygonum convolvulus SETVI: Setaria viridis 2. Post-Emergence Herbicidal Action and Crop Plant Compatibility Seeds of monocotyledonous and dicotyledonous weeds and crop plants are placed in sandy loam in plastic or wood-fiber pots, covered with soil and cultivated in a greenhouse under controlled growth conditions. 2 to 3 weeks after sowing, the test plants are treated at the one-leaf stage. The compounds of the invention, formulated in the form of wettable powders (WP) or as emulsion concentrates (EC), are then sprayed onto the green parts of the plants as aqueous suspension or emulsion with addition of 0.5% additive at a water application rate of 600 l/ha (converted). After the test plants had been kept in the greenhouse under optimum growth conditions for about 3 weeks, the activity of the preparations is rated visually in comparison to untreated controls. For example, 100% activity=the plants have died, 0% activity=like control plants.

Avena fatua = experiment: Post-emergence herbicidal activity against AVEFA; conditions: Avena fatua, 504 h, dosage 320 g/ha, rated about 3 weeks after treatment
Method: as §1, with “AMARE: Amaranthus retroflexus AVEFA: Avena fatua” for “POLCO: Polygonum convolvulus SETVI: Setaria viridis”

Alopecurus myosuroides = experiment: Post-emergence herbicidal activity against ALOMY; conditions: Alopecurus myosuroides, 504 h, dosage 320 g/ha, rated about 3 weeks after treatment
Method: as §1, with “ABUTH: Abutilon theophrasti ALOMY: Alopecurus myosuroides” for “POLCO: Polygonum convolvulus SETVI: Setaria viridis”

Veronica persica = experiment: Post-emergence herbicidal activity against VERPE; conditions: Veronica persica, 504 h, dosage 320 g/ha
Method: as §1, with “STEME: Stellaria media VERPE: Veronica persica” for “POLCO: Polygonum convolvulus SETVI: Setaria viridis”

Row | Compound | pest or weed control at 320 g/ha (Polygonum convolvulus) [%] | pest or weed control at 320 g/ha (Avena fatua) [%] | pest or weed control at 320 g/ha (Alopecurus myosuroides) [%] | pest or weed control at 320 g/ha (Veronica persica) [%]
1 | C=C[C@@]1(C(=O)N[C@H]2CO[C@@H](C(=O)OC)C2)CC(c2cc(F)cc(F)c2)=NO1 (mixture of isomers) [I-22, methyl cis-4-[[(5R)-3-(3,5-difluorophenyl)-5-vinyl-4H-isoxazole-5-carbonyl]amino]tetrahydrofuran-2-carboxylate] | 90 | – | – | –
2 | COC(=O)C1(NC(=O)C2(C)CC(c3cc(F)cc(F)c3)=NO2)CCOC1 (stereo not drawn) [I-17, methyl 3-[[3-(3,5-difluorophenyl)-5-methyl-4H-isoxazole-5-carbonyl]amino]tetrahydrofuran-3-carboxylate] | 90 | 80 | – | –
3 | CCOC(=O)C1(NC(=O)C2(C)CC(c3cc(F)cc(F)c3)=NO2)CCOC1 (stereo not drawn) [I-18, ethyl 3-[[3-(3,5-difluorophenyl)-5-methyl-4H-isoxazole-5-carbonyl]amino]tetrahydrofuran-3-carboxylate] | – | 100 | 80 | 80
